This note sets out measurements from patent US20170233409A1, “TYPE IV SECRETION SYSTEM INHIBITORS” (priority 2016, published 2017).

A word on the EC50: it is the concentration needed to bring the measured effect to its halfway point.

Each structure is given as a SMILES string.

In assay [1] the test system is cag T4SS. In kind it is cell-based, H. pylori. Conditions: screening library, tested concentrations.
In assay [2] the test system is H. pylori cag T4SS. In kind it is cell-based. Particulars: no bacterial pre-treatment, about 18 hours post-infection, HEK293-TLR9 cells.
For assay [3], the system named is cag T4SS. The assay is described as follows: NF-κB luciferase reporter activation by H. pylori in AGS cells. Conditions: WT H. pylori, AGS NF-κB-luc cells. The class given is cell-based. The procedure: Quantitation of NF-κB signaling activation. AGS cells stably transfected with an NF-κB-luciferase reporter (AGS NF-κB-luc) were cultured for 24 h and treated as described for the IL-8 induction studies. After 4 h co-culture with H. pylori, cell monolayers were washed with sterile PBS, and cell monolayer extracts were obtained by passive cell lysis. NF-κB-luciferase activity was measured by the Steady-Glo Luciferase Assay System (Promega) on a BioTek Synergy 4 plate reader, and plates were normalized to the DMSO vehicle control for each dilution series.
A general note: Reporter assays use an easily measured gene product as a stand-in for the process of interest.

Assay [4] has as its system H. pylori. The assay is described as follows: H. pylori viability (cellular ATP, CellTiter-Glo). The class given is cell-based. Particulars: for H. pylori Toxicity: 150 μM, cellular ATP at 18 h of incubation. A general note: In ATP-based viability assays light output follows the ATP content of the culture.
For assay [5], the system named is cag T4SS. The class given is cell-based, H. pylori.

Turning to `O=C([O-])[C@@H]1CSc2c(-c3ccccc3)c(Cc3cccc4ccccc34)cc(=O)n21.[Li+]` [PhenylC8], the “cag T4SS activity, structure-activity statements” value (from here on “cag T4SS activity”) in assay [1] was “not tolerated”.

For the compound `O=C(Nc1ccccc1)C1CSc2c(C3CC3)c(Cc3cccc4ccccc34)cc(=O)n21` (stereo not drawn) [KSK165], the “T4SS Inhibiton [50 μM] (TLR9 Activation Assay)” value (“T4SS Inhibiton [50 μM]” below) in assay [2] was “+++ (Very good T4SS inhibition (reproducibly inhibits T4SS activity by at least 50%, with representative results of about 80% inhibition at higher concentrations))”.

In the case of `O=C(O)C1CSc2c(C3CC3)c(Cc3ccc(OC4O[C@H](CO)[C@@H](O)[C@@H](O)[C@@H]4O)c4ccccc34)cc(=O)n21` (stereo partly drawn) [PS402, 8-cyclopropyl-5-oxo-7-((4-(((3S,4R,5S,6R)-3,4,5-trihydroxy-6-(hydroxymethyl)tetrahydro-2H-pyran-2-yl)oxy)naphthalen-1-yl)methyl)-2,3-dihydro-5H-thiazolo[3,2-a]pyridine-3-carboxylic acid], the “T4SS Inhibiton [50 μM]” value in assay [2] is “++”.

For the compound `O=C(O)[C@@H]1CSc2c(C3CC3)c3c(-c4cccc5ccccc45)n[nH]c3c(=O)n21` [MS218], the “cag T4SS activity” value in assay [1] was “inactive”.

Regarding `O=C(O)C1CSc2c(C3CC3)c(Cc3ccc(C(F)(F)F)c4ccccc34)cc(=O)n21` (stereo not drawn) [KSK88, 8-cyclopropyl-5-oxo-7-((4-(trifluoromethyl)naphthalen-l1yl)methyl)-2,3-dihydro-5H-thiazolo[3,2-a]pyridine-3-carboxylic acid], the “T4SS Inhibiton [50 μM]” value in assay [2] is given as “+++ (Very good T4SS inhibition (reproducibly inhibits T4SS activity by at least 50%, with representative results of about 80% inhibition at higher concentrations))”.

As for `O=C(O)[C@@H]1CSc2c(C3CC3)c3cn(-c4ccccc4)cc3c(=O)n21` [GKP42, (3R)-9-cyclopropyl-5-oxo-7-phenyl-2,3,5,7-tetrahydropyrrolo[3,4-d][1,3]thiazolo[3,2-a]pyridine-3-carboxylic acid], the “cag T4SS-dependent NF-κB activation” value in assay [3] is listed as “did not attenuate”. The “cag T4SS activity” value in assay [1] is “inactive”. Also, the “viability of bacterial cells” value in assay [4] (concentrations up to 150 μM) is “did not impact viability”. The “LogEC50, attenuation of cag T4SS-dependent IL-8 secretion” value in assay [5] (4.5 h co-culture, normalized IL-8 secretion, non-linear regression) is listed as −0.648. Besides, the “cag T4SS-dependent IL-8 secretion” value in assay [5] (H. pylori-gastric epithelial cell co-culture, 25-150 μM) was “minimal or no effects”. Besides, in assay [5] (read-out: EC50, attenuation of cag T4SS-dependent IL-8 secretion, 4.5 h co-culture, normalized IL-8 secretion, non-linear regression), the EC50 turned out to be 225 µM.

For the compound `O=c1cc(Cc2cccc3ccccc23)c(C2CC2)c2n1CCS2` [EC013], the “T4SS Inhibiton [50 μM]” value in assay [2] is reported as “+++ (Very good T4SS inhibition (reproducibly inhibits T4SS activity by at least 50%, with representative results of about 80% inhibition at higher concentrations))”.

Take `CCOc1ccc(Cc2cc(=O)n3c(c2C2CC2)SC[C@H]3C(=O)O)c2ccccc12` [(R)-JG131, (R)-8-cyclopropyl-7-((4-ethoxynaphthalen-1-yl)methyl)-5-oxo-2,3-dihydro-5H-thiazolo[3,2-a]pyridine-3-carboxylic acid]: the “T4SS Inhibiton [50 μM]” value in assay [2] is given as “+++ (Very good T4SS inhibition (reproducibly inhibits T4SS activity by at least 50%, with representative results of about 80% inhibition at higher concentrations))”.

For the compound `O=C(O)C1CSc2c(C3CC3)c(Cc3cccc4ccccc34)cc(=O)n21` (racemic) [rac-C10], the “T4SS Inhibiton [50 μM]” value in assay [2] is “++”.

Regarding `Cc1cccc(-c2sc3c(-c4cn(C)c5ccccc45)c(COc4cccc5ccccc45)c(CN4CCOCC4)c(=O)n3c2C(=O)O)c1.Cl` [EC341], the “H. pylori Toxicity” value in assay [4] is “Toxic”.

As for `COc1ccc2cc(Cc3cc(=O)n4c(c3C3CC3)SC[C@H]4C(=O)O)ccc2c1` [CB158, (R)-8-cyclopropyl-7-((6-methoxynaphthalen-2-yl)methyl)-5-oxo-2,3-dihydro-5H-thiazolo[3,2-a]pyridine-3-carboxylic acid], in assay [2], the “T4SS Inhibiton [50 μM]” value is “+”.

On to `O=C(O)c1c(Cc2ccccc2)sc2c(C3CC3)c(Cc3cccc4ccccc34)cc(=O)n12` [EC240, reference compound], for which, in assay [1], the “cag T4SS activity” value is “not tolerated”. In addition, the “H. pylori Toxicity” value in assay [4] is reported as “Toxic”.

In the case of `O=C([O-])[C@@H]1CSc2c(C3CC3)c(Cc3cccc4ccccc34)c(CN3CCOCC3)c(=O)n21.[Li+]` [NP048], in assay [1], the “cag T4SS activity” value is on record as “abolished activity”.

As to `O=C(O)C1CS(=O)(=O)c2c(C3CC3)c(Cc3cccc4ccccc34)cc(=O)n21` (stereo not drawn) [TW460, 8-cyclopropyl-7-(naphthalen-1-ylmethyl)-5-oxo-2,3-dihydro-5H-thiazolo[3,2-a]pyridine-3-carboxylic acid 1,1-dioxide], the “T4SS Inhibiton [50 μM]” value in assay [2] is given as “+”.

Regarding `COc1ccc(Cc2cc(=O)n3c(c2C2CC2)SC[C@@H]3C(=O)O)c2ccccc12` [(S)-JG202, (S)-8-cyclopropyl-7-((4-methoxynaphthalen-1-yl)methyl)-5-oxo-2,3-dihydro-5H-thiazolo[3,2-a]pyridine-3-carboxylic acid], the “T4SS Inhibiton [50 μM]” value in assay [2] is on record as “++”.

`O=C(O)[C@@H]1CSc2c(C3CC3)c(Cc3cccc(COc4cccc5ccccc45)c3)cc(=O)n21` [CB160]: the “H. pylori Toxicity” value in assay [4] was “Toxic”.

On to `O=C(O)[C@@H]1CSc2c(C3CC3)c(Cc3ccc4ccccc4c3)cc(=O)n21` [KSK61, (R)-8-cyclopropyl-7-(naphthalen-2-ylmethyl)-5-oxo-2,3-dihydro-5H-thiazolo[3,2-a]pyridine-3-carboxylic acid], for which, in assay [2], the “T4SS Inhibiton [50 μM]” value is recorded as “++”.

Turning to `O=C(O)[C@H]1CSc2c(C3CC3)c(Cc3cccc4ccccc34)cc(=O)n21` [JG14, (S)-8-cyclopropyl-7-(naphthalen-1-ylmethyl)-5-oxo-2,3-dihydro-5H-thiazolo[3,2-a]pyridine-3-carboxylic acid], in assay [2], the “T4SS Inhibiton [50 μM]” value is “++”.

With `O=C(O)[C@@H]1CSc2c(-c3cccc(C(F)(F)F)c3)c(Cc3cccc4ccccc34)cc(=O)n21` [FN075, reference compound], the “cag T4SS activity” value in assay [1] is given as “not tolerated”. In assay [4], the “H. pylori Toxicity” value is listed as “Toxic”.

For the compound `O=C(O)[C@@H]1CSc2c(-c3cccc(C(F)(F)F)c3)c(Cc3cccc(COc4cccc5ccccc45)c3)cc(=O)n21` [CB151], the “H. pylori Toxicity” value in assay [4] is reported as “Toxic”.
